Assay results as given in ChEMBL document CHEMBL5375942, “Discovery of a Potent Chloroacetamide GPX4 Inhibitor with Bioavailability to Enable Target Engagement in Mice, a Potential Tool Compound for Inducing Ferroptosis In Vivo” (J Med Chem, 2023).
The source made the active and inactive calls. No cut-off for these calls is given here.

Experiments:
[1] = Stability in mouse plasma assessed as half life; assay type: ADME, cell-free
[2] = Metabolic stability in mouse liver microsomes assessed as unbound intrinsic clearance; assay type: ADME, Microsome
[3] = Unbound fraction in human plasma; assay type: ADME, cell-free
[4] = Metabolic stability in human liver microsomes assessed as unbound intrinsic clearance; assay type: ADME, Microsome
NCI-H1703 [5] = assay: Induction of ferroptosis in human NCI-H1703 cells assessed as cell viability incubated for 72 hrs in presence of ferrostatin-1 by CellTiter-Glo luminescent cell viability assay; assay type: functional, cell-based; settings: NCI-H1703, 72 h
NCI-H1703 [6] = assay: Induction of ferroptosis in human NCI-H1703 cells assessed as cell viability incubated for 72 hrs by CellTiter-Glo luminescent cell viability assay; assay type: functional, cell-based; settings: NCI-H1703, 72 h
[7] = Stability in human plasma assessed as half life; assay type: ADME, cell-free
[8] = Aqueous solubility of the compound at pH 7; assay type: physicochemical
[9] = Plasma clearance in iv dosed mouse; assay type: ADME, organism-based
WSUDLCL2 [10] = assay: Effect on tumor volume in human WSUDLCL2 cells subcutaneously inoculated in CB17 SCID-Beige mouse tumor model at 50 to 100 mg/kg, ip measured upto day 20; assay type: functional, organism-based; settings: dose 50-100 mg/kg
HT-1080 [11] = assay: Induction of ferroptosis in GPX4-dependent human HT-1080 cells assessed as cell viability incubated for […] by time-course cell viability assay; assay type: functional, cell-based
WSUDLCL2 [12] = assay: Induction of ferroptosis in human WSUDLCL2 cells assessed as cell viability incubated for 72 hrs in presence of ferrostatin-1 by CellTiter-Glo luminescent cell viability assay; assay type: functional, cell-based
HT-1080 [13] = assay: Induction of ferroptosis in GPX4-dependent human HT-1080 cells assessed as cell viability incubated for 6 hrs by time-course cell viability assay; assay type: functional, cell-based; settings: HT-1080, 6 h
HT-1080 [14] = assay: Induction of ferroptosis in GPX4-dependent human HT-1080 cells assessed as cell viability incubated for 6 hrs in presence of 40% human plasma by time-course cell viability assay; assay type: functional, cell-based; settings: HT-1080, 6 h
HT-1080 [15] = assay: Induction of ferroptosis in GPX4-dependent human HT-1080 cells assessed as cell viability incubated for 3 hrs by time-course cell viability assay; assay type: functional, cell-based; settings: HT-1080, 3 h
[16] = molecular target: Phospholipid hydroperoxide glutathione peroxidase GPX4 (Mus musculus) (UniProt O70325); assay: In vivo inhibition of GPX4 in SCID/Beige mouse assessed as increase in malondialdehyde level in kidney homogenate at 100 to 200 mg/kg, ip by TBAR assay; assay type: functional, organism-based; settings: dose 100-200 mg/kg
Phospholipid hydroperoxide glutathione peroxidase GPX4 (Mus musculus), sequence (O70325 whole entry): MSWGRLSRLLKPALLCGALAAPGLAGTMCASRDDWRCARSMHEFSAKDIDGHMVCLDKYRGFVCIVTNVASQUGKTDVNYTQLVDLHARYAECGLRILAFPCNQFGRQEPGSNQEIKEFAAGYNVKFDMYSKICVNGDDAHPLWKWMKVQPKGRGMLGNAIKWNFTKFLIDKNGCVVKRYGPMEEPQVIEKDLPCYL

HT-1080 [17] = assay: Induction of ferroptosis in GPX4-dependent human HT-1080 cells assessed as cell viability incubated for 24 hrs by time-course cell viability assay; assay type: functional, cell-based; settings: HT-1080, 24 h
WSUDLCL2 [18] = assay: In vivo target engagement at GPX4 in human WSUDLCL2 cells subcutaneously inoculated in CB17 SCID-Beige mouse assessed as target engagement in tumor at 50 to 100 mg/kg, ip measured upto day 20 by Western blot analysis; assay type: functional, organism-based; settings: dose 50-100 mg/kg
HT-1080 [19] = assay: Induction of ferroptosis in GPX4-dependent human HT-1080 cells assessed as cell viability incubated for […] in presence of 40% human plasma by time-course cell viability assay; assay type: functional, cell-based
HT-1080 [20] = assay: Induction of ferroptosis in GPX4-dependent human HT-1080 cells assessed as cell viability incubated for 24 hrs in presence of 40% human plasma by time-course cell viability assay; assay type: functional, cell-based; settings: HT-1080, 24 h
WSUDLCL2 [21] = assay: Induction of ferroptosis in human WSUDLCL2 cells assessed as cell viability incubated for 72 hrs in presence of liproxstatin-1 by CellTiter-Glo luminescent cell viability assay; assay type: functional, cell-based
[22] = molecular target: Phospholipid hydroperoxide glutathione peroxidase GPX4 (Mus musculus) (UniProt O70325); assay: In vivo inhibition of GPX4 in SCID/Beige mouse assessed as increase in malondialdehyde level in plasma at 100 to 200 mg/kg, ip by TBAR assay; assay type: functional, organism-based; settings: dose 100-200 mg/kg
[23] = molecular target: Phospholipid hydroperoxide glutathione peroxidase GPX4 (Mus musculus) (UniProt O70325); assay: In vivo inhibition of GPX4 in SCID/Beige mouse assessed as fold increase in PTGS2 transcription in kidney homogenate at 100 to 200 mg/kg, ip by qPCR analysis relative to vehicle treated control; assay type: functional, organism-based; settings: dose 100-200 mg/kg
WSUDLCL2 [24] = assay: Induction of ferroptosis in human WSUDLCL2 cells assessed as cell viability incubated for 72 hrs by CellTiter-Glo luminescent cell viability assay; assay type: functional, cell-based
HT-1080 [25] = assay: Induction of ferroptosis in GPX4-dependent human HT-1080 cells assessed as cell viability incubated for 3 hrs in presence of 40% human plasma by time-course cell viability assay; assay type: functional, cell-based; settings: HT-1080, 3 h
[26] = AUC in CB17 SCID-Beige mouse subcutaneously inoculated with WSUDLCL2 cells at 100 mg/kg, ip; assay type: ADME, organism-based; set-up: dose 100 mg/kg, route ip; settings: in vivo
[27] = Aqueous solubility of the compound at pH 1; assay type: physicochemical
[28] = Cmax in CB17 SCID-Beige mouse subcutaneously inoculated with WSUDLCL2 cells at 100 mg/kg, ip; assay type: ADME, organism-based; set-up: dose 100 mg/kg, route ip; settings: in vivo
HT-1080 [29] = assay: Induction of ferroptosis in GPX4-dependent human HT-1080 cells assessed as cell viability measured immediately after addition of compound by time-course cell viability assay; assay type: functional, cell-based
[30] = Cmax in CB17 SCID-Beige mouse subcutaneously inoculated with WSUDLCL2 cells at 100 mg/kg, sc; assay type: ADME, organism-based; set-up: dose 100 mg/kg, route sc; settings: in vivo
[31] = Half life in CB17 SCID-Beige mouse subcutaneously inoculated with WSUDLCL2 cells at 100 mg/kg, ip; assay type: ADME, organism-based; settings: in vivo
[32] = Half life in CB17 SCID-Beige mouse subcutaneously inoculated with WSUDLCL2 cells at 100 mg/kg, sc; assay type: ADME, organism-based; settings: in vivo
[33] = AUC in CB17 SCID-Beige mouse subcutaneously inoculated with WSUDLCL2 cells at 100 mg/kg, sc; assay type: ADME, organism-based; set-up: dose 100 mg/kg, route sc; settings: in vivo
[34] = molecular target: Phospholipid hydroperoxide glutathione peroxidase GPX4 (Mus musculus) (UniProt O70325); assay: Target engagement at GPX4 in mouse 4T1 cells assessed as mass change between covalently bound protein and unbound protein at 0.01 to 1 ug/ml measured after 2 hrs by Western blot analysis; assay type: cell-based; settings: dose 0.01-1 µg/ml

SMILES: O=C([C@H]1Cc2c([nH]c3ccccc23)[C@H](c2ccccc2)N1C(=O)CCl)N1CCCC1
- half-life [1]: 3.6 h
- CL free [2]: 1640 mL/min/kg
- fraction unbound [3]: 0.061
- CL free [4]: 292 mL/min/kg
- EC50 (NCI-H1703 [5]): > 10000 nM
- EC50 (NCI-H1703 [6]): 1760 nM
- half-life [7]: 7.43 h

SMILES: Cc1noc([C@H]2Cc3c([nH]c4ccccc34)[C@H](c3ccccc3)N2C(=O)CCl)n1
- half-life [1]: 2.68 h
- CL free [2]: 910 mL/min/kg
- fraction unbound [3]: 0.013
- CL free [4]: 118 mL/min/kg
- EC50 (NCI-H1703 [5]): > 10000 nM
- EC50 (NCI-H1703 [6]): 44 nM
- half-life [7]: 6.73 h

SMILES: Cc1noc([C@H]2Cc3c([nH]c4ccccc34)[C@H](c3ccc(S(C)(=O)=O)cc3)N2C(=O)CCl)n1
- half-life [1]: 1.85 h
- CL free [2]: 243 mL/min/kg
- CL free [4]: 31.7 mL/min/kg
- EC50 (NCI-H1703 [5]): 2340 nM
- EC50 (NCI-H1703 [6]): 37 nM
- half-life [7]: 2.92 h

SMILES: COC(=O)[C@H]1Cc2c([nH]c3ccccc23)[C@H](c2ccc(OC)cc2)N1C(=O)CCl
- half-life [1]: 4.02 h
- CL free [2]: 2050 mL/min/kg
- fraction unbound [3]: 0.068
- CL free [4]: 375 mL/min/kg
- EC50 (NCI-H1703 [5]): > 10000 nM
- EC50 (NCI-H1703 [6]): 127 nM
- half-life [7]: 13 h

SMILES: COC(=O)[C@H]1Cc2c([nH]c3ccccc23)[C@H](c2ccc(S(C)(=O)=O)nc2)N1C(=O)CCl
- half-life [1]: 2.77 h
- CL free [2]: 235 mL/min/kg
- CL free [4]: 28.3 mL/min/kg
- EC50 (NCI-H1703 [5]): 2450 nM
- EC50 (NCI-H1703 [6]): 118 nM
- solubility [8]: > 200 µM
- half-life [7]: 3.33 h

SMILES: COC(=O)[C@H]1Cc2c([nH]c3ccccc23)[C@H](c2ccccc2)N1C(C)=O
- half-life [1]: 13.7 h
- CL free [2]: 2682 mL/min/kg
- CL free [4]: 183 mL/min/kg
- clearance [9]: 50 mL/min/kg
- half-life [7]: > 16 h

SMILES: COC(=O)[C@H]1Cc2c([nH]c3ccccc23)[C@H](c2ccc(S(C)(=O)=O)cc2)N1C(=O)CCl
- Activity (WSUDLCL2 [10]): inactive
- EC50 (HT-1080 [11]): 850 nM
- Activity (WSUDLCL2 [12]): inactive
- EC50 (HT-1080 [13]): 170 nM
- EC50 (NCI-H1703 [5]): 4740 nM
- EC50 (HT-1080 [14]): 490 nM
- EC50 (HT-1080 [15]): 270 nM
- Activity [16]: Active
- EC50 (HT-1080 [17]): 90 nM
- Activity (WSUDLCL2 [18]): Active
- EC50 (HT-1080 [19]): 1260 nM
- EC50 (NCI-H1703 [6]): 117 nM
- EC50 (HT-1080 [20]): 520 nM
- Activity (WSUDLCL2 [21]): inactive
- Activity [22]: Active
- Activity [23]: Active
- fold change (FC) [23]: 8
- Activity (WSUDLCL2 [24]): Active
- EC50 (HT-1080 [25]): 770 nM

SMILES: C#CC(=O)N1[C@@H](c2ccccc2)c2[nH]c3ccccc3c2C[C@@H]1C(=O)OC
- half-life [1]: 0.317 h
- EC50 (NCI-H1703 [6]): 157 nM
- half-life [7]: 0.4 h

SMILES: CN(C)C(=O)[C@H]1Cc2c([nH]c3ccccc23)[C@H](c2ccccc2)N1C(=O)CCl
- EC50 (NCI-H1703 [5]): 3740 nM
- EC50 (NCI-H1703 [6]): 737 nM

SMILES: COC(=O)c1ccc([C@H]2c3[nH]c4ccccc4c3C[C@H](C(=O)OC)N2C(=O)CCl)cc1
- AUC [26]: 2.79 µg/h/mL
- half-life [1]: 0.167 h
- CL free [2]: 8720 mL/min/kg
- EC50 (HT-1080 [11]): 160 nM
- solubility [27]: < 0.8 µM
- Activity (WSUDLCL2 [12]): inactive
- EC50 (HT-1080 [13]): 60 nM
- Cmax [28]: 650 ng/mL
- CL free [4]: 195 mL/min/kg
- EC50 (HT-1080 [14]): 750 nM
- EC50 (HT-1080 [29]): 590 nM
- Cmax [30]: 480 ng/mL
- EC50 (HT-1080 [15]): 80 nM
- half-life [31]: 1.8 h
- half-life [32]: 4.1 h
- AUC [33]: 2.67 µg/h/mL
- EC50 (HT-1080 [19]): 1420 nM
- EC50 (NCI-H1703 [6]): 80 nM
- EC50 (HT-1080 [20]): 880 nM
- solubility [8]: < 0.8 µM
- Activity [34]: Active
- Activity (WSUDLCL2 [21]): inactive
- Activity (WSUDLCL2 [24]): Active
- EC50 (HT-1080 [25]): 1010 nM
- clearance [9]: 478 mL/min/kg
- half-life [7]: 14.6 h

SMILES: COC(=O)c1ccc([C@H]2c3[nH]c4ccccc4c3CCN2C(=O)CCl)cc1
- half-life [1]: 0.2 h
- EC50 (NCI-H1703 [6]): 1390 nM
- half-life [7]: 1 h

SMILES: COC(=O)c1ccc([C@@H]2c3[nH]c4ccccc4c3C[C@H](C(=O)OC)N2C(=O)CCl)cc1
- Activity [34]: Active

SMILES: COC(=O)[C@H]1Cc2c([nH]c3ccccc23)[C@H](c2ccc(C(F)(F)F)nc2)N1C(=O)CCl
- half-life [1]: 2.12 h
- CL free [2]: 1060 mL/min/kg
- CL free [4]: 147 mL/min/kg
- EC50 (NCI-H1703 [5]): > 10000 nM
- EC50 (NCI-H1703 [6]): 42 nM
- half-life [7]: 2.63 h
